Assay results reported in PMC4965473 (Frontiers in Physiology, 2016).
Entries after “also recorded” stand apart in the source; their conditions may differ. Structures can show the parent of a compound that is named as a salt.

Key:
wt M2TMD21−49 [1] = system: wt M2TMD21−49; design: species or system influenza A; conditions: pH 5.5
M2TMD21−49 [2] = biological target: T1, M2TMD21−49 (Influenza A virus, UniProt P0DOF5, L46C); assay type: binding; conditions: pH 5.5
wt M2TMD21−49 [3] = system: wt M2TMD21−49; design: species or system influenza A; conditions: pH 5.5; remark: listed apart in the source
[4] = system: G34A mutant of M2TMD21−49; design: species or system influenza A; conditions: pH 5.5
M2TMD21−49 [5] = biological target: T1, M2TMD21−49

`NC12CC3CC(CC(C3)C1)C2` [amantadine, amantadine hydrochloride] was tested, and the “maximum increase in DEER modulation depth upon binding of amantadine” value (wt M2TMD21−49 [1]) was 23–30%, the “reduction of k4d in the presence of amantadine” value (M2TMD21−49 [2]) was 10 -fold and the “narrowing of Gaussian widths (σ) in the presence of amantadine” value (wt M2TMD21−49 [3]) was “ca. 2 Å”. For the same compound, the “r1, Gaussian mean (proximal distance)” value (wt M2TMD21−49 [3]) was 20.8 Å, the “r2, Gaussian mean (lateral distance)” value (wt M2TMD21−49 [3]) was 29 Å and the “shortening of inter-spin distances upon binding of amantadine” value (wt M2TMD21−49 [3]) was 5–8 Å. For the same compound, the “effect of amantadine on C-terminal conformation / inter-spin distances of G34A mutant” value [4] was “marginal if any effect on M2TMD C-terminal conformation; also recorded: Inter-spin distances do not change upon the addition of amantadine” and the “oligomeric species seen in EM micrographs” value (M2TMD21−49 [5]) was “monomers, dimers, and tetramers”.
